The text below walks through data of the supplement of paper PMC11208160.
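Further: IS621 recombinase and bridge RNA in Escherichia coli cells.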

The nature of the data set: recombinant barcode read abundance after kanamycin selection (control-corrected) (log10(CPM+1)); higher = more efficient recombination; sequences stand for … in AGTGCAGAGAAAATCGGCCAGTTTTCTCTGCCTGCAGTCCGCATGCCGT…AGATTTATGCAGCGGACTGCCTTTCTCCCAAAGTGATAAACCGGACAGTATCATGGACCGGTTTTCCCGGTAATCCGTATTTGCAAGGTTGGTTTCACT; site = the 11-nt target. In short, it runs like this:
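For this pooled screen, each oligo contained a promoter, a target, a barcode and the J23119-driven first 104 bases of the bridge RNA. Gibson cloning placed it into a vector supplying the remaining 73 bp and a T7-inducible recombinase, and the pool was co-electroporated into E. coli with a donor plasmid. Recombination efficiency is derived from barcode counts per million at recombinant junctions after averaging and control correction, and is expressed on a log scale as log10(CPM+1), with selection on chloramphenicol/ampicillin/kanamycin plus 0.1 mM IPTG against a chloramphenicol/ampicillin LB agar control.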
Turning to “ATTGGTTCTTGGGTTCTAACCTGTTGCCT (site ATTGGTTCTAG)”, the “recombinant barcode read abundance (log10)” value stood at 1.22.

“ATTTGAACTTGGGTTCTAACCTGTTGCCT (site ATTTGAACTAG)”: the “recombinant barcode read abundance (log10)” value worked out at 0.086.

For “ATTTGAACTTGGGTTCTAACCTGTTGCCT (site ATTTGCACTAG)”, the “recombinant barcode read abundance (log10)” value was found to be 0.0882.

Turning to “ATTTGAACTTGGGTTCTAACCTGTTGCCT (site ATTTGGACTAG)”, the “recombinant barcode read abundance (log10)” value worked out at 0.148.

On to “ATTTGAACTTGGGTTCTAACCTGTTGCCT (site ATTTGTACTAG)”, for which the “recombinant barcode read abundance (log10)” value came to 0.101.

As to “ATTTGACCTTGGGTTCTAACCTGTTGCCG (site ACTTGACCTCT)”, the “recombinant barcode read abundance (log10)” value was found to be 0.205.

For the sequence “ATTTGACCTTGGGTTCTAACCTGTTGCCG (site ATTTGACCTCG)”, the “recombinant barcode read abundance (log10)” value was determined as 0.67.

With “ATTTGAGCTTGGGTTCTAACCTGTTGCTG (site ATTTGAGCTCA)”, the “recombinant barcode read abundance (log10)” value is 0.732.

Turning to “ATTTGAGCTTGGGTTCTAACCTGTTGCTG (site GTATGAGCTCA)”, the “recombinant barcode read abundance (log10)” value was 0.0966.

For “CAAAAGGCTTGGGTTCTAACCTGTTGCCG (site CAAAAGGCTCG)”, the “recombinant barcode read abundance (log10)” value was found to be 1.18.

With “CAAAAGGCTTGGGTTCTAACCTGTTGCCG (site GTGTCCTCTAC)”, the “recombinant barcode read abundance (log10)” value was found to be 0.239.

Turning to “CAAACACCTTGGGTTCTAACCTGTTGCTT (site CAAACACCTAA)”, the “recombinant barcode read abundance (log10)” value amounted to 0.712.

For “CAAACACCTTGGGTTCTAACCTGTTGCTT (site CAACCACCTAA)”, the “recombinant barcode read abundance (log10)” value is 0.0879.

Turning to “CAAACACCTTGGGTTCTAACCTGTTGCTT (site CAAGCACCTAA)”, the “recombinant barcode read abundance (log10)” value came to 0.0323.

Turning to “CAAACACCTTGGGTTCTAACCTGTTGCTT (site CAATCACCTAA)”, the “recombinant barcode read abundance (log10)” value is 0.426.

Take “CAAACCTCTTGGGTTCTAACCTGTTGCAC (site CAAACCTCTGT)”: the “recombinant barcode read abundance (log10)” value was found to be 1.97.

Consider “CAAACCTCTTGGGTTCTAACCTGTTGCAC (site TCTTAGACTTC)”, for which the “recombinant barcode read abundance (log10)” value is 0.0456.

In the case of “CAAAGCCCTTGGGTTCTAACCTGTTGCCT (site CAAAGCCCTAG)”, the “recombinant barcode read abundance (log10)” value was 1.9.

As to “CAAAGCCCTTGGGTTCTAACCTGTTGCCT (site CGGAGCCCTAG)”, the “recombinant barcode read abundance (log10)” value was 0.349.

Turning to “CAACCGACTTGGGTTCTAACCTGTTGCCT (site CAACCGACTAG)”, the “recombinant barcode read abundance (log10)” value worked out at 1.61.

As for “CAACCGACTTGGGTTCTAACCTGTTGCCT (site CAACCGCCTAG)”, the “recombinant barcode read abundance (log10)” value worked out at 0.265.

As for “CAACCGACTTGGGTTCTAACCTGTTGCCT (site CAACCGGCTAG)”, the “recombinant barcode read abundance (log10)” value is 0.0866.

For “CAACCGACTTGGGTTCTAACCTGTTGCCT (site CAACCGTCTAG)”, the “recombinant barcode read abundance (log10)” value came out at 0.0239.

Consider “CAACCGCCTTGGGTTCTAACCTGTTGCCT (site CAACCGACTAG)”, for which the “recombinant barcode read abundance (log10)” value came out at 0.411.

As for “CAACCGCCTTGGGTTCTAACCTGTTGCCT (site CAACCGCCTAG)”, the “recombinant barcode read abundance (log10)” value was 1.43.

Regarding “CAACCGCCTTGGGTTCTAACCTGTTGCCT (site CAACCGGCTAG)”, the “recombinant barcode read abundance (log10)” value came to 0.402.

Take “CAACCGCCTTGGGTTCTAACCTGTTGCCT (site CAACCGTCTAG)”: the “recombinant barcode read abundance (log10)” value came out at 0.864.

On to “CAACCTACTTGGGTTCTAACCTGTTGCCT (site CAACCTACTAG)”, for which the “recombinant barcode read abundance (log10)” value turned out to be 0.586.

Turning to “CAACCTACTTGGGTTCTAACCTGTTGCCT (site CAATCTACTAG)”, the “recombinant barcode read abundance (log10)” value was found to be 0.121.

Turning to “CAACTTCCTTGGGTTCTAACCTGTTGCGT (site CAACTTCCTAC)”, the “recombinant barcode read abundance (log10)” value turned out to be 1.18.

Regarding “CAACTTCCTTGGGTTCTAACCTGTTGCGT (site CGGCTTCCTAC)”, the “recombinant barcode read abundance (log10)” value was 0.496.

As for “CAAGACGCTTGGGTTCTAACCTGTTGCCT (site CAAGACGCTAG)”, the “recombinant barcode read abundance (log10)” value came to 1.4.

For “CAAGACGCTTGGGTTCTAACCTGTTGCCT (site CTAGACGCTAG)”, the “recombinant barcode read abundance (log10)” value was 1.34.

As to “CAAGATGCTTGGGTTCTAACCTGTTGCCT (site CAAGATGCTAG)”, the “recombinant barcode read abundance (log10)” value worked out at 1.21.

As for “CAAGATGCTTGGGTTCTAACCTGTTGCCT (site CACGATGCTAG)”, the “recombinant barcode read abundance (log10)” value was 0.304.

Consider “CAAGATGCTTGGGTTCTAACCTGTTGCCT (site CAGGATGCTAG)”, for which the “recombinant barcode read abundance (log10)” value was found to be 0.222.

On to “CAAGATGCTTGGGTTCTAACCTGTTGCCT (site CATGATGCTAG)”, for which the “recombinant barcode read abundance (log10)” value turned out to be 0.366.

For “CAAGATTCTTGGGTTCTAACCTGTTGCCT (site CAAGATTCTAG)”, the “recombinant barcode read abundance (log10)” value came out at 1.69.

Take “CAAGATTCTTGGGTTCTAACCTGTTGCCT (site CCAGATTCTAG)”: the “recombinant barcode read abundance (log10)” value stood at 0.71.

As to “CAAGATTCTTGGGTTCTAACCTGTTGCCT (site CGAGATTCTAG)”, the “recombinant barcode read abundance (log10)” value was determined as 0.

Consider “CAAGATTCTTGGGTTCTAACCTGTTGCCT (site CTAGATTCTAG)”, for which the “recombinant barcode read abundance (log10)” value worked out at 0.6.

In the case of “CAAGTGACTTGGGTTCTAACCTGTTGCCT (site CAAGTGACTAG)”, the “recombinant barcode read abundance (log10)” value came out at 1.68.

On to “CAAGTGACTTGGGTTCTAACCTGTTGCCT (site TCCTATGCTTA)”, for which the “recombinant barcode read abundance (log10)” value worked out at 0.129.

Regarding “CAAGTGCCTTGGGTTCTAACCTGTTGCCT (site CAAGTGCCTAG)”, the “recombinant barcode read abundance (log10)” value came to 2.01.

Turning to “CAAGTGCCTTGGGTTCTAACCTGTTGCCT (site CAAGTTCCTAG)”, the “recombinant barcode read abundance (log10)” value came out at 0.064.

For the sequence “CAAGTTCCTTGGGTTCTAACCTGTTGCCT (site CAAGTGCCTAG)”, the “recombinant barcode read abundance (log10)” value came out at 0.62.

“CAAGTTCCTTGGGTTCTAACCTGTTGCCT (site CAAGTTCCTAG)”: the “recombinant barcode read abundance (log10)” value was determined as 1.03.

In the case of “CAATACACTTGGGTTCTAACCTGTTGCCT (site CAATACACTAG)”, the “recombinant barcode read abundance (log10)” value stood at 2.34.

On to “CAATACACTTGGGTTCTAACCTGTTGCCT (site CCACACACTAG)”, for which the “recombinant barcode read abundance (log10)” value is 0.0608.

For the sequence “CAATCGTCTTGGGTTCTAACCTGTTGCTT (site CAATCGTCTAA)”, the “recombinant barcode read abundance (log10)” value is 0.629.

Take “CAATCGTCTTGGGTTCTAACCTGTTGCTT (site GAATCTTCTAA)”: the “recombinant barcode read abundance (log10)” value stood at 0.0659.

For “CAATCTGCTTGGGTTCTAACCTGTTGCCT (site CAATCTGCTAG)”, the “recombinant barcode read abundance (log10)” value is 0.233.

In the case of “CAATCTGCTTGGGTTCTAACCTGTTGCCT (site CACTCTGCTAG)”, the “recombinant barcode read abundance (log10)” value came to 0.0111.

As to “CAATCTGCTTGGGTTCTAACCTGTTGCCT (site CAGTCTGCTAG)”, the “recombinant barcode read abundance (log10)” value stood at 0.101.

As to “CAATCTGCTTGGGTTCTAACCTGTTGCCT (site CATTCTGCTAG)”, the “recombinant barcode read abundance (log10)” value came out at 0.0288.

On to “CAATGCTCTTGGGTTCTAACCTGTTGCCT (site CAATGCTCTAG)”, for which the “recombinant barcode read abundance (log10)” value turned out to be 1.84.

In the case of “CAATGCTCTTGGGTTCTAACCTGTTGCCT (site CAGTGCTCTTG)”, the “recombinant barcode read abundance (log10)” value came to 0.113.

On to “CAATGGACTTGGGTTCTAACCTGTTGCCT (site CAATGGACTAG)”, for which the “recombinant barcode read abundance (log10)” value was found to be 1.12.

As to “CAATGGACTTGGGTTCTAACCTGTTGCCT (site CACTGGACTAG)”, the “recombinant barcode read abundance (log10)” value turned out to be 0.0334.

For the sequence “CAATGGACTTGGGTTCTAACCTGTTGCCT (site CAGTGGACTAG)”, the “recombinant barcode read abundance (log10)” value came out at 0.106.

“CAATGGACTTGGGTTCTAACCTGTTGCCT (site CATTGGACTAG)”: the “recombinant barcode read abundance (log10)” value was found to be 0.103.

On to “CAATGGTCTTGGGTTCTAACCTGTTGCTT (site CAATGGTCTAA)”, for which the “recombinant barcode read abundance (log10)” value was determined as 1.86.

Turning to “CAATGGTCTTGGGTTCTAACCTGTTGCTT (site CAATGGTCTAC)”, the “recombinant barcode read abundance (log10)” value worked out at 1.64.

On to “CAATGGTCTTGGGTTCTAACCTGTTGCTT (site CAATGGTCTAG)”, for which the “recombinant barcode read abundance (log10)” value stood at 1.07.

“CAATGGTCTTGGGTTCTAACCTGTTGCTT (site CAATGGTCTAT)”: the “recombinant barcode read abundance (log10)” value was 1.14.

Turning to “CAATTTCCTTGGGTTCTAACCTGTTGCAT (site CAATTTCCTAT)”, the “recombinant barcode read abundance (log10)” value is 0.322.

Turning to “CAATTTCCTTGGGTTCTAACCTGTTGCAT (site GCCAGCTCTCA)”, the “recombinant barcode read abundance (log10)” value amounted to 0.0829.

On to “CACACGACTTGGGTTCTAACCTGTTGCTT (site CACACGACTAA)”, for which the “recombinant barcode read abundance (log10)” value turned out to be 0.496.

For the sequence “CACACGACTTGGGTTCTAACCTGTTGCTT (site TGGTTACCTCC)”, the “recombinant barcode read abundance (log10)” value came to 0.0367.

On to “CACACGCCTTGGGTTCTAACCTGTTGCCT (site CACACGCCTAG)”, for which the “recombinant barcode read abundance (log10)” value is 0.278.

In the case of “CACACGCCTTGGGTTCTAACCTGTTGCCT (site CTCACGCCTAA)”, the “recombinant barcode read abundance (log10)” value worked out at 0.0913.

Regarding “CACATATCTTGGGTTCTAACCTGTTGCAT (site CACATATCTAT)”, the “recombinant barcode read abundance (log10)” value is 1.49.

As for “CACATATCTTGGGTTCTAACCTGTTGCAT (site CACATCTCTAG)”, the “recombinant barcode read abundance (log10)” value came out at 0.123.

As to “CACCAATCTTGGGTTCTAACCTGTTGCCT (site CACCAATCTAG)”, the “recombinant barcode read abundance (log10)” value stood at 0.525.

Regarding “CACCAATCTTGGGTTCTAACCTGTTGCCT (site CACGCATCTAG)”, the “recombinant barcode read abundance (log10)” value was 0.269.

On to “CACCAGCCTTGGGTTCTAACCTGTTGCAT (site AGGTCCGCTTA)”, for which the “recombinant barcode read abundance (log10)” value stood at 0.167.

“CACCAGCCTTGGGTTCTAACCTGTTGCAT (site CACCAGCCTAT)”: the “recombinant barcode read abundance (log10)” value turned out to be 1.98.
